Earlier results, collected in patent US20180071205A1, “Stable Vitamin C System” (priority 2014, published 2018).

Experiments:
[1] = aqueous solutions; accelerated by alkalines, iron and copper; sodium salt at pH >6
[2] = normal water-based preparation

O=C1O[C@H]([C@@H](O)CO)C(O)=C1O [L-ascorbic acid]
stability to oxidation by air [1]: rapidly oxidized by air
pH [2]: around 2
